Data published in ChEMBL document CHEMBL1201862, “PubChem BioAssay data set” (2004).
Calls of active or inactive are those of the source.

Experiments:
[1] = target: Heat shock protein HSP 90-alpha (Homo sapiens, UniProt P07900); test: Luminescence-based dose response biochemical high throughput screening assay for inhibitors of the Heat Shock Protein 90 (HSP90). [Related pubchem assays: 1831 (Summary AID.), 1846 (Confirmation screen.), 1789 (Primary screen.)]
[2] = target: Glyceraldehyde-3-phosphate dehydrogenase (Homo sapiens, UniProt P04406)
Chain of Glyceraldehyde-3-phosphate dehydrogenase (P04406 whole entry): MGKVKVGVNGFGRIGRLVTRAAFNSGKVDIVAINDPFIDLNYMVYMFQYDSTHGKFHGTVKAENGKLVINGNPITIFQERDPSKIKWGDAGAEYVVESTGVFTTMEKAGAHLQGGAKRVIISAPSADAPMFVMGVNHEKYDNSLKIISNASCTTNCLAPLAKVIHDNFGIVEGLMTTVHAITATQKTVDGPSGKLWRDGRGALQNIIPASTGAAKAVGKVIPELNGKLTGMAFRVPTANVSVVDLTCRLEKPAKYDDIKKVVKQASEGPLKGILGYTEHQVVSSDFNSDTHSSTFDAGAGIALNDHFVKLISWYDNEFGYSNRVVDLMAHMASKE

[3] = target: T1, Bcl-2-related protein A1 (Mus musculus, UniProt Q07440); test: Bfl-1 binding inhibitors, SAR follow-up, biochemical, fluorescence polarization (AID 1070)
T1 sequence (Q07440 whole entry): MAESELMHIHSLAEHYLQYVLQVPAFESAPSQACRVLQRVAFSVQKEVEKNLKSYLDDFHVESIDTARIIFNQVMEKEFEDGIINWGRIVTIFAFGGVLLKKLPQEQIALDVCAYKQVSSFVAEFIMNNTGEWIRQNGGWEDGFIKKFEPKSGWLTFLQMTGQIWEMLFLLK

[4] = target: T1, Bcl-2-related protein A1; test: small-molecule antagonists of Bfl-1/BH3 interaction – biochemical, TR-FRET, mouse Bfl-1, confirmation (AID 621);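 further: TR-FRET binding of GST-Bfl-1 to FITC-labelled Bid peptide via terbium antibody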
[5] = target: Voltage-gated inwardly rectifying potassium channel KCNH2 (Homo sapiens, UniProt Q12809); test: concentration-dependent hERG rescue from blockers – cell-based, thallium flux, dose response (AID 2121); format: ADME
Chain of Voltage-gated inwardly rectifying potassium channel KCNH2 (Q12809 whole entry): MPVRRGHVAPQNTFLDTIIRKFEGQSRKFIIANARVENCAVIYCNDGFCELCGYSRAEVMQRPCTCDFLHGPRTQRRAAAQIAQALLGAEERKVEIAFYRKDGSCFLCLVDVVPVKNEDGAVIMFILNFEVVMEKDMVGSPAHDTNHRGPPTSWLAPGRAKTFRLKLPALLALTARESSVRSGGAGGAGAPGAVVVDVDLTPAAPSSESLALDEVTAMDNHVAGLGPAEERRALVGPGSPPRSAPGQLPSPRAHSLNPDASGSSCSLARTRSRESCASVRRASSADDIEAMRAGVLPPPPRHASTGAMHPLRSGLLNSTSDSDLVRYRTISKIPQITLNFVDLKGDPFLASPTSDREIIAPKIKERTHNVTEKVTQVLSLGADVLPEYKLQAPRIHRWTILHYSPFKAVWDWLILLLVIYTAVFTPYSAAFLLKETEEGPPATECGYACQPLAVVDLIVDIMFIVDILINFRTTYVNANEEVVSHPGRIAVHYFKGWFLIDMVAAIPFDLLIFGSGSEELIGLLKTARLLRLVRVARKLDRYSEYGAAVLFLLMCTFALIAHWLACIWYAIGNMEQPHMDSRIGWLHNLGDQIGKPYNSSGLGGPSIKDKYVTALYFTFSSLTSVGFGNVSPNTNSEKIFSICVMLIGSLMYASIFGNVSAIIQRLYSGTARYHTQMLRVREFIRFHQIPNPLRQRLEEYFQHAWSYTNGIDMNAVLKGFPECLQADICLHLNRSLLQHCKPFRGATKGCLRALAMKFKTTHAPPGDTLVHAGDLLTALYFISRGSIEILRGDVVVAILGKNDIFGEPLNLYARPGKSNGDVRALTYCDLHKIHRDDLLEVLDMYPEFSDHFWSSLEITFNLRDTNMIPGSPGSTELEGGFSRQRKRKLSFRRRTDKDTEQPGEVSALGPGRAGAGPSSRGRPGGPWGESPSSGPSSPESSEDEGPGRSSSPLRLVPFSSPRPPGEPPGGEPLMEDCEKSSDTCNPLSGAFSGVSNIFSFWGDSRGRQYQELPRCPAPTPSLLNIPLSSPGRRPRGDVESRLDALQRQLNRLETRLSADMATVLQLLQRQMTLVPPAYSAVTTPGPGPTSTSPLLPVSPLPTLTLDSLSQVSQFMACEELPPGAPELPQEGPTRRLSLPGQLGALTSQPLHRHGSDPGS

[6] = target: X-box-binding protein 1 (Homo sapiens, UniProt P17861); format: functional, Cricetulus griseus;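 further: confirmatory dose-response counter-screen serving a CHOP assay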
Chain of X-box-binding protein 1 (P17861 whole entry): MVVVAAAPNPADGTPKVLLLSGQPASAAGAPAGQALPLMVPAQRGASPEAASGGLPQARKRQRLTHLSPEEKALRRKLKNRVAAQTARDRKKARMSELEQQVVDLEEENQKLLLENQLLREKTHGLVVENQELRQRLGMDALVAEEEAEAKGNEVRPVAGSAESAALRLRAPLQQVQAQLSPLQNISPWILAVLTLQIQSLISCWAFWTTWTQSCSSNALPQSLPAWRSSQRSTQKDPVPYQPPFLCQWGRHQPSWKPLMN

[7] = viability loss in HeLa cells – cytotoxicity control for MgcRacGAP inhibitor project, dose response (AID 624300); format: functional
[8] = target: T2, Calpain-2 catalytic subunit (Sus scrofa, UniProt P43367); test: m-calpain protease blockers, concentration series – biochemical, fluorogenic peptide substrate, dose response (AID 1420); format: functional
T2 sequence (P43367 whole entry): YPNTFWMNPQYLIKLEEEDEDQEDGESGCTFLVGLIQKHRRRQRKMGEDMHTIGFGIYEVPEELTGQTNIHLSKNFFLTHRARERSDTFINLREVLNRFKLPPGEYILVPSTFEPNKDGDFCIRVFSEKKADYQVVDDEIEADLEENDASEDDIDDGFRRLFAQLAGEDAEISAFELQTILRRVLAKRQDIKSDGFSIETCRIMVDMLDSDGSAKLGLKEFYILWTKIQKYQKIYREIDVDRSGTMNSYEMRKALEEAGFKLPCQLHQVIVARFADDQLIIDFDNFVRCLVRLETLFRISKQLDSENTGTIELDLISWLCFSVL

[9] = target: T3, Rac GTPase-activating protein 1 (Homo sapiens, UniProt Q9H0H5); test: blockers of MgcRacGAP-driven Rac1 GTP hydrolysis – biochemical, ADP Hunter fluorescence, primary and confirmatory, confirmation (AID 624330); format: functional
T3 sequence (Q9H0H5 whole entry): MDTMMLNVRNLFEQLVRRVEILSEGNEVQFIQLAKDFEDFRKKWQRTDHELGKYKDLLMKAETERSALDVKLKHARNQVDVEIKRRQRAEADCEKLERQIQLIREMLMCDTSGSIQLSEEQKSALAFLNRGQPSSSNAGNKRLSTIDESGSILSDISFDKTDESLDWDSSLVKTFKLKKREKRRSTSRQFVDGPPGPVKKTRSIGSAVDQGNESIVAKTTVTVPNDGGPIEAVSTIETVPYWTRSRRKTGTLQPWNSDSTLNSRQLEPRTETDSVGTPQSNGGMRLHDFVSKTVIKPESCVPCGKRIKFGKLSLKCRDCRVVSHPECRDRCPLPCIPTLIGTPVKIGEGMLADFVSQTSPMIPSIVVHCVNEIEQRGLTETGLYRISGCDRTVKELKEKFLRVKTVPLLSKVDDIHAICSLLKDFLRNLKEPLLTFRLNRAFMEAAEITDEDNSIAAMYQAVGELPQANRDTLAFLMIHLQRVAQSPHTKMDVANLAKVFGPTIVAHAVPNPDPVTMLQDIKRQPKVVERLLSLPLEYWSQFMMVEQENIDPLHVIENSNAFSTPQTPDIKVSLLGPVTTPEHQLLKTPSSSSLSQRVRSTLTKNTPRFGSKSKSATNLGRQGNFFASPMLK

[10] = viability loss in Vero cells – cytotoxicity control for Vif-APOBEC3G degradation inhibitor project, dose response (AID 1117358); format: functional; details: Vero
[11] = viability loss in THP-1 monocytes – THP-1 cells, cytotoxicity control for Vif-APOBEC3G degradation inhibitor project, dose response (AID 1117359); format: functional; details: THP-1
[12] = tested on: Vero; test: viability of Vero cells under compound – cytotoxicity control for flavivirus capping enzyme inhibitors (AID 588742); format: functional; details: Chlorocebus sabaeus
[13] = target: Protein Tat (Human immunodeficiency virus type 1 group M subtype B (isolate HXB2)(HIV-1), UniProt P04608); format: functional;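 further: tat binding to TAR RNA read out by fluorescence polarization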
Chain of Protein Tat (P04608 whole entry): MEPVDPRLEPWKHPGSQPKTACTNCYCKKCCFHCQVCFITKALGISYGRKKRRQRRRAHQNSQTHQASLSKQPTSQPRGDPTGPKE

[14] = target: T4, Estrogen receptor (Homo sapiens, UniProt P03372);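 further: potency for inhibiting coactivator peptide recruitment to the receptor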
T4 sequence (P03372 whole entry): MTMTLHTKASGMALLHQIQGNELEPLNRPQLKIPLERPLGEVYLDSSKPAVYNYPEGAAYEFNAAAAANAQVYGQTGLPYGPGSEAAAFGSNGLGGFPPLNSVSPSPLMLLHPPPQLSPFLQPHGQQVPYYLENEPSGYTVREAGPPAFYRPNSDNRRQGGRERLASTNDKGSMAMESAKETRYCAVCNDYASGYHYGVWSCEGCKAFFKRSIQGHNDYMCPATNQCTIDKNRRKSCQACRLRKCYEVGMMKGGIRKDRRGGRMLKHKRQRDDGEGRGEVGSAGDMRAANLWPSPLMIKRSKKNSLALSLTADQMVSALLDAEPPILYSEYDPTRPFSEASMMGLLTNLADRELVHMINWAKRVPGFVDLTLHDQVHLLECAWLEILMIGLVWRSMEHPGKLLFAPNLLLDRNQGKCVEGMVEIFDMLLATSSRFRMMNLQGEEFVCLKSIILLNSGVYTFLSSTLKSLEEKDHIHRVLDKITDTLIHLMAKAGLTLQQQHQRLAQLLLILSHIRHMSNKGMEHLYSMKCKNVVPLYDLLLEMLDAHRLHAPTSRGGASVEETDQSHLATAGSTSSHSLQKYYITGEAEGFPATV

[15] = target: Protein-tyrosine kinase 2-beta (Homo sapiens, UniProt Q14289);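 further: potency of inhibitors of PYK2 kinase phosphorylation of poly-GT substrate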
Chain of Protein-tyrosine kinase 2-beta (Q14289 whole entry): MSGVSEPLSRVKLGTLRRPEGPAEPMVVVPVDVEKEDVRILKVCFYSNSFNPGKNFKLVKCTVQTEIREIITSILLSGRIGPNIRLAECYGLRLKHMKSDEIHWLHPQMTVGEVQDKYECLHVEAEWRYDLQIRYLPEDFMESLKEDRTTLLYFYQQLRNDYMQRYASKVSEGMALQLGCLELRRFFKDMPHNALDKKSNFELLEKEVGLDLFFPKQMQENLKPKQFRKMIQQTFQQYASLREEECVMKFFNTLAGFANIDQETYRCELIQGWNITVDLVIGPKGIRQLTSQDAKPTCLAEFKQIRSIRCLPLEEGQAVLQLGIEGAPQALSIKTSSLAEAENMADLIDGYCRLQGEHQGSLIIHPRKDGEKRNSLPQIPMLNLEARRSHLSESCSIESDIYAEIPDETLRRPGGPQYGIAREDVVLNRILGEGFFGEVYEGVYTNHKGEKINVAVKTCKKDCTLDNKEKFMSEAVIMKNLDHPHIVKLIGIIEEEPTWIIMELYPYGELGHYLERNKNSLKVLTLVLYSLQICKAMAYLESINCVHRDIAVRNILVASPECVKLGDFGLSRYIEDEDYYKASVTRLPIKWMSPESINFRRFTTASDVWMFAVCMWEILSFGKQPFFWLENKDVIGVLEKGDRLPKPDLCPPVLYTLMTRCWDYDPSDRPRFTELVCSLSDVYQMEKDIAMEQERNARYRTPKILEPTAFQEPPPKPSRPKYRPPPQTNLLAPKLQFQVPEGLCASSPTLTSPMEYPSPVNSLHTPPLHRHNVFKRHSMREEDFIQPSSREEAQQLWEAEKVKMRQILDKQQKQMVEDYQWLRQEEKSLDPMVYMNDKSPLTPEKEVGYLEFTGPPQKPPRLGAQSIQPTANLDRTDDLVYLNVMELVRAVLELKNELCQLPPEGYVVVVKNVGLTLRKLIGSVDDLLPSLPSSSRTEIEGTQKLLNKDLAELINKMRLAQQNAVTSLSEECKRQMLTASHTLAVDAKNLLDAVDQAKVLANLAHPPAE

Cc1cc(C(=O)Cn2nc(C(=O)O)c3ccccc3c2=O)c(C)n1CC(F)(F)F
IC50 [1]: > 60 µM (not active)

C[C@@H]1CN(C2=C(Cl)C(=O)N(c3cccc([N+](=O)[O-])c3)C2=O)CCN1
IC50 [2]: > 100 µM (not active)
IC50 [3]: 12.7 µM (active)
IC50 [4]: 9.03 µM (active)

O=C(NC(=S)Nc1ncc(Br)cc1Br)c1ccccc1
EC50 [5]: 1.46 µM (active)

CCOc1cccc(CNc2ccc(O)cc2)c1OCc1ccc(Cl)cc1Cl
Absolute IC50 (XBP1) [6]: 10 µM
CC50 [7]: 85.7 µM (active)
IC50 [8]: 8.34 µM (not active)
IC50 [9]: 118 µM (active)
CC50 [10]: > 40 µM (active)
CC50 [11]: 30.4 µM (active)
CC50 [12]: 36.4 µM (active)
IC50 [13]: > 100 µM (inconclusive)

O=c1oc2ccccc2n1CCn1c2ccccc2c2nc3ccccc3nc21
IC50 [14]: 17.9 µM (active)
IC50 [15]: 2.08 µM (active)
